# Values of other authors as cited in US10543184B2, “Method to treat functional somatic syndromes with combination of aciclovir and celecoxib” (INNOVATIVE MED CONCEPTS, LLC, priority 2012, dated 2020).
# System: fibromyalgia patients
# Details: Kendall et al., J. Rheumatology (2004) 31, 783-784
smiles,measurement,value
CC(C)[C@H](N)C(=O)OCCOCn1cnc2c(=O)[nH]c(N)nc21 [valacyclovir],Outcome of treating fibromyalgia patients,not successful
